Assay results: patent US20080269304A1, “Parakeratosis inhibitor, pore-shrinking agent and skin preparation for external use” (priority 2002, published 2008)

Legend:
[1] = tested on: parakeratosis caused by oleic acid; assay: Test on parakeratosis inhibitory action (oleic acid applied on the back of a hairless mouse); assay type: in vivo; details: for Effect on parakeratosis caused by oleic acid (in words): summary of Tables 2 and 3, hairless mouse; for Incidence of Parakeratosis (Average of 4 mice): 100 μL, 3 days, grades of 1 to 4
Protocol: An aqueous solution containing 3% each of GABA, glycine, D-glutamic acid and L-glutamic acid was prepared, and pH of each solution was adjusted to nutrality, if necessary. An aqueous solution containing 10 mM each of GABA, bicuculline methobromide (antagonist to GABA receptor type A), MK-801, muscimol, isogubacin, ATP, suramin, PPADS and TNP-ATP was also prepared.
Thereafter, 100 μL of sample solution or reference solution was applied. This procedure was repeated for 3 days, and the keratin layer on the back was peeled with a tape. The nucleus of the keratin layer was stained with hematoxylin, the number of nuclear cells was counted under a microscope, and the results were evaluated in four grades of 1 to 4.

pores = assay: Test on pore-shrinking action (replicas of cheek pores); details: for Decision of Replica of Pores (Average of n = 5): 3% sample solution on cheek twice a day for 1 month, difference of scores (13 grades of 1 to 13) before and after the test; for Pore-shrinking effect (in words): summary of Table 4, 3% solutions
Epidermal keratinocyte = assay: Excitatory action test of cells with oleic acid (intracellular calcium, fura-2-AM); assay type: cell-based; details: summary of Table 1
Protocol: Epidermal keratinocyte was cultivated on an appropriate medium, for example, KGM medium, according to the conventional method. The cultured cells were seeded on a cover glass chamber and cultivated there a day before measuring calcium ions. An appropriate buffer solution, for example BSS (balanced salt solution) and a calcium sensitive fluorescent pigment (fura-2-AM) were added in the cultured cell at a concentration of about 2 μM on the next day, and the fluorescent pigment was allowed to be incorporated into the cell by incubating under an appropriate condition (for example 30 minutes at 37° C.). After completing intake of the pigment, the same buffer solution (fresh BSS) was added. […] The same measurement was carried out by adding only the same buffer solution (BSS). The fluorescence intensity at 340 nm was divided by the fluorescence intensity at 380 nm for determining the calcium concentration according to the conventional method.

[2] = Application Test of 30% Oleic Acid Solution, sample 3% solution, water reference 2.5
[3] = Application Test of 3% Oleic Acid Solution, sample 10 mM, water reference 2.0

Compound	Effect on parakeratosis caused by oleic acid (in words) [1]	Incidence of Parakeratosis (Average of 4 mice) [1, 2]	Decision of Replica of Pores (Average of n = 5) (pores)	Pore-shrinking effect (in words) (pores)	Incidence of Parakeratosis (Average of 4 mice) [1, 3]	Excitatory function of the cell (in words) (Epidermal keratinocyte)
C[N+]1(C)CCc2cc3c(cc2[C@H]1[C@@H]1OC(=O)c2c1ccc1c2OCO1)OCO3.[Br-] [bicuculline methobromide]	inhibited parakeratosis inhibitory action					
N[C@@H](CCC(=O)O)C(=O)O [L-Glutamic Acid, L-glutamic acid]	worsens parakeratosis	3.0				
NCCCC(=O)O [GABA, γ-aminobutyric acid]	improved parakeratosis	1.5	−1.0	excellent pore-shrinking effects	1.5	
Cc1ccc(C(=O)Nc2ccc(S(=O)(=O)O)c3cc(S(=O)(=O)O)cc(S(=O)(=O)O)c23)cc1NC(=O)c1cccc(NC(=O)Nc2cccc(C(=O)Nc3cc(C(=O)Nc4ccc(S(=O)(=O)O)c5cc(S(=O)(=O)O)cc(S(=O)(=O)O)c45)ccc3C)c2)c1 [Suramin, suramin]	improved parakeratosis				1.5	
Nc1ncnc2c1ncn2[C@@H]1O[C@H](COP(=O)(O)OP(=O)(O)OP(=O)(O)O)[C@@H](O)[C@H]1O [ATP]	worsens parakeratos is				2.3	
NCc1cc(=O)[nH]o1 [Muscimol, muscimol]	improved parakeratosis				1.3	
O=C(O)C1=CCNCC1 [Isogubacin, isogubacin]	improved parakeratosis				1.3	
C[C@]12N[C@H](Cc3ccccc31)c1ccccc12 [MK-801, dizocylpin]	improved parakeratosis				1.0	
Cc1nc(N=Nc2ccc(S(=O)(=O)O)cc2S(=O)(=O)O)c(COP(=O)(O)O)c(C=O)c1O [PPADS, pyridoxal phosphate-6-azophenyl-2′,4′-disulfonic acid]	improved parakeratosis				1.8	
NCC(=O)O [Glycine, glycine]	improved parakeratosis	1.3	−1.2	excellent pore-shrinking effects		
CCCCCCCC/C=C\CCCCCCCC(=O)O [Oleic Acid, oleic acid]						has an excitatory function
trinitrophenyl-ATP [TNP-ATP]	improved parakeratosis				1.5	
N[C@H](CCC(=O)O)C(=O)O [D-Glutamic Acid, D-glutamic acid]	improved parakeratosis	2.0	−0.4	excellent pore-shrinking effects		
